Test results as given in patent US20140357512A1, “HISTONE DEACETYLASE (HDAC) BIOMARKERS IN MULTIPLE MYELOMA” (priority 2013, published 2014).

System: human myeloma cell line MM.1S
Assay: SILAC acetylated-lysine peptide profiling, HDAC inhibitor vs DMSO (light/heavy ratio)
Assay type: cell-based
Source text: An embodiment of the invention comprises utilizing the SILAC method in order to quantitate changes in protein expression between two or more populations of cells. The SILAC method is a technique based on mass spectrometry that detects differences in protein abundance among samples using non-radioactive isotopic labeling. The SILAC method is known in the art, and described in detail in Ong et al., “Stable Isotope Labeling by Amino Acids in Cell Culture, SILAC, as a Simple and Accurate Approach to Expression Proteomics”, Molecular & Cellular Proteomics, vol. 1, pp. 376-386 (2002), which is incorporated herein by reference in its entirety.
Briefly, the SILAC method involves growing two populations of cells in cell culture. The first population of cells is grown in growth media containing normal amino acids (“normal media”). The second population of cells is grown in media lacking a standard essential amino acid (such as lysine), but is then supplemented with a non-radioactive, isotopically labeled form of that essential amino acid (such as lysine labeled with ^13C atoms, rather than normal ^12C atoms), which is called “heavy media”. When the two populations of cells are each growing in the medium, they incorporate the amino acids into all of their proteins. The growth of cells maintained in the heavy media is no different from that in normal media. All peptides containing the heavy amino acids are heavier than their normal counterparts. The cells from each of the two populations of cells are lysed. The lysates from each of the two cell populations are then combined. The combined cell lysates are then analyzed by mass spectrometry. Pairs of chemically identical peptides of different stable isotope composition can be differentiated in a mass spectrometer due to their difference in mass. The ratio of peak intensities in the mass spectrum for such peptide pairs reflects the abundance ratio for the two proteins.
This example describes SILAC studies that were performed to compare the effects of three different HDAC inhibitors (Compound A, Compound B, and tubastatin A) to a control on a human multiple myeloma cell line. The HDAC inhibitors were also compared amongst themselves to determine differences in their effects.
A human myeloma cell line MM.1S was grown using either ^12C (light) or ^13C (heavy) lysine containing culture medium. The “heavy” cells were treated with DMSO as the control, and the “light” cells were treated with a single HDAC inhibitor at 37° C. for 6 hours. The heavy and light cells were lysed, and the lysates were mixed in 1:1 ratio and digested with the protease trypsin. The acetylated lysine containing peptides (due to the action of the HDAC inhibitor) in the digested peptide pool were captured by a non-specific anti-acetylated lysine antibody cocktail (the antibodies identify both light and heavy acetylated peptides), and subjected to mass spectrometry analysis in order to identify thousands of individual peptides.
Thousands of peptides were identified in pairs (^12C and ^13C) due to their known mass differences. The amino acid sequence and quantitative ratio (Light/Heavy) of a given peptide in two differentially treated cell lysates were then determined and annotated with their possible protein (gene) sources.
As stated above, three HDAC inhibitors (Compound A, Compound B, and Tubastatin A) were used. Thus, the SILAC method was performed three times, with a different HDAC inhibitor compared to a control each time. Accordingly, there are three pairs of quantitative data in the table below, i.e., Compound A:DMSO, Compound B:DMSO, and Tubastatin A:DMSO. A cut-off of 1.30 fold of change (increase or decrease) was then used to determine “changed” or “+” in the table, and any peptides with a fold of change less than 1.3 fold were determined to be “unchanged” or “0” in the table. Those peptides that were not identified were marked as “NA” in the table. […]

O=C(CCCCCCNC(=O)c1cnc(N(c2ccccc2)c2ccccc2)nc1)NO [Compound A, 2-(diphenylamino)-N-(7-(hydroxyamino)-7-oxoheptyl)pyrimidine-5-carboxamide]
L/H ratio of acetylated peptide SELK(ac)HAK (SEQ ID NO: 696, Isoform Long of Delta-1-pyrroline-5-carboxylate synthase [68], ALDH18A1): 0.66 log 2 | L/H ratio of acetylated peptide SCGLNPK(ac)LEK (SEQ ID NO: 697, Isoform 5 of Transcriptional regulator ATRX [468], ATRX): 0.66 log 2 | L/H ratio of acetylated peptide EVK(ac)VLLDQLR (SEQ ID NO: 698, Isoform 1 of Adipocyte plasma membrane-associated protein [250], C20orf3): 0.67 log 2 | L/H ratio of acetylated peptide KAVTK(ac)VQK (SEQ ID NO: 699, Histone H2B type 2-F [21], HIST2H2BF): 0.67 log 2 | L/H ratio of acetylated peptide ILQK(ac)QGFK (SEQ ID NO: 700, Dihydrolipoyl dehydrogenase mitochondrial [267], DLD): 0.67 log 2 | L/H ratio of acetylated peptide NK(ac)FGAPQK (SEQ ID NO: 701, Trifunctional enzyme subunit alpha mitochondrial [353], HADHA): 0.68 log 2 | L/H ratio of acetylated peptide VTAVHK(ac)ANIMK (SEQ ID NO: 702, Isocitrate dehydrogenase [NAD] subunit gamma mitochondrial [221], IDH3G): 0.68 log 2 | L/H ratio of acetylated peptide ACPEK(ac)HFAFK (SEQ ID NO: 703, Protein FAM3C [67], FAM3C): 0.68 log 2 | L/H ratio of acetylated peptide KPTLDK(ac)PSPETFVK (SEQ ID NO: 704, Estradiol 17-beta-dehydrogenase 12 [249], HSD17B12): 0.68 log 2 | L/H ratio of acetylated peptide QLAQK(ac)YNCDK (SEQ ID NO: 705, Ubiquitin-60S ribosomal protein L40 [88], UBA52): 0.68 log 2 | L/H ratio of acetylated peptide […](ac)EDVK (SEQ ID NO: 706, Isoform 1 of ATP synthase subunit d mitochondrial [95], ATP5H): 0.68 log 2 | L/H ratio of acetylated peptide […](ac)TLSK (SEQ ID NO: 707, Isoform 2 of PDZ domain-containing protein 2 [1726], PDZD2): 0.69 log 2 | L/H ratio of acetylated peptide ADK(ac)LAEEHSS (SEQ ID NO: 708, ATP synthase subunit beta mitochondrial [522], ATP5B): 0.70 log 2 | L/H ratio of acetylated peptide DFGSFDK(ac)FK (SEQ ID NO: 709, Superoxide dismutase [Mn] mitochondrial [130], SOD2): 0.70 log 2 | L/H ratio of acetylated peptide KIDK(ac)YTEVLK (SEQ ID NO: 710, 60S ribosomal protein L13a [191], SNORD32A, RPL13A, SNORD33, SNORD34): 0.70 log 2 | L/H ratio of acetylated peptide CSK(ac)LPSSTK(ac)SGWPR (SEQ ID NO: 711, cDNA FLJ75110 highly similar to Homo sapiens PHD finger protein 15 (PHF15) mRNA 3[2:38], PHF15): 0.70 log 2 | L/H ratio of acetylated peptide KAINK(ac)AQK (SEQ ID NO: 712, Histone H2B type 1-M [21], HIST1H2BM): 0.70 log 2 | L/H ratio of acetylated peptide EFPEK(ac)QELHR (SEQ ID NO: 713, Protein zer-1 homolog [584], ZER1): 0.70 log 2 | L/H ratio of acetylated peptide TDLEK(ac)[…] (SEQ ID NO: 714, Putative annexin A2-like protein [157], ANXA2P2): 0.71 log 2 | L/H ratio of acetylated peptide […](ac)ASMK (SEQ ID NO: 715, Putative annexin A2-like protein [115], ANXA2P2): 0.72 log 2 | L/H ratio of acetylated peptide LTCYLCK(ac)QK (SEQ ID NO: 716, Isoform 1 of Bromodomain-containing protein 1 [33]1, BRD1): 0.72 log 2 | L/H ratio of acetylated peptide AINK(ac)AQK(ac)K (SEQ ID NO: 717, Histone H2B type 1-M [21:24], HIST1H2BM): 0.72 log 2 | L/H ratio of acetylated peptide KGIEK(ac)NLGIGK (SEQ ID NO: 718, Malate dehydrogenase mitochondrial [301], MDH2): 0.72 log 2 | L/H ratio of acetylated peptide DNGK(ac)[…] (SEQ ID NO: 719, ATP synthase subunit alpha mitochondrial [305], ATP5A1): 0.72 log 2 | L/H ratio of acetylated peptide QLYNIYAK(ac)HTK (SEQ ID NO: 720, Putative ATP-dependent Clp protease proteolytic subunit mitochondrial [211], CLPP): 0.72 log 2 | L/H ratio of acetylated peptide GKGDK(ac)AQIEK (SEQ ID NO: 721, 60 kDa heat shock protein mitochondrial [364], HSPD1): 0.73 log 2 | L/H ratio of acetylated peptide K(ac)FLVHNVK (SEQ ID NO: 722, 60S ribosomal protein L32 [76], RPL32): 0.73 log 2 | L/H ratio of acetylated peptide GLIK(ac)LVSK (SEQ ID NO: 723, 40S ribosomal protein S25 [98], RPS25): 0.73 log 2 | L/H ratio of acetylated peptide IGFAEK(ac)VAAK (SEQ ID NO: 724, Isoform Mitochondrial of Fumarate hydratase mitochondrial [292], FH): 0.73 log 2 | L/H ratio of acetylated peptide (ac)AEK(ac)FDCHYCR (SEQ ID NO: 725, four and a half LIM domains protein 1 isoform 5 [20], FHL1): 0.73 log 2 | L/H ratio of acetylated peptide […](ac)VIPK (SEQ ID NO: 726, Endoplasmic reticulum resident protein 29 [48], ERP29): 0.73 log 2 | L/H ratio of acetylated peptide […](ac)SVAR (SEQ ID NO: 727, 60S ribosomal protein L7a [245], RPL7A, SNORD24): 0.73 log 2 | L/H ratio of acetylated peptide TITMK(ac)QLLR (SEQ ID NO: 728, Branched-chain-amino-acid aminotransferase [281], BCAT2): 0.73 log 2 | L/H ratio of acetylated peptide SK(ac)FVLVK (SEQ ID NO: 729, Endoplasmic reticulum resident protein 29 [54], ERP29): 0.74 log 2 | L/H ratio of acetylated peptide LVEDTK(ac)HRPK (SEQ ID NO: 730, 39S ribosomal protein L9 mitochondrial [87], MRPL9): 0.74 log 2
